Assay results: ChEMBL document CHEMBL1909493, “Synthesis and biological evaluation of novel analogues of the pan class I phosphatidylinositol 3-kinase (PI3K) inhibitor 2-(difluoromethyl)-1-[4,6-di(4-morpholinyl)-1,3,5-triazin-2-yl]-1H-benzimidazole (ZSTK474)” (J Med Chem, 2011)
≈ marks a conversion by molar mass, not a printed value.

Experiments:
cells [1] = conditions: Homo sapiens, HCT-116
[2] = target: T1, Phosphatidylinositol 4,5-bisphosphate 3-kinase catalytic subunit beta isoform (Homo sapiens, UniProt P42338); assay: Inhibition of human His-tagged PI3K p110beta after 2 hrs by HTRF assay
[3] = target: T2, Phosphatidylinositol 4,5-bisphosphate 3-kinase catalytic subunit alpha isoform (Homo sapiens, UniProt P42336); assay: Inhibition of PIK3CA-mediated cell signaling in PTEN-deficient human U87MG cells assessed as inhibition of insulin-induced pAkt/PKB phosphorylation at Ser473 treated for 15 mins before insulin challenge measured after 5 mins by immunoblotting; format: cell-based, U-87MG ATCC
[4] = target: T2, Phosphatidylinositol 4,5-bisphosphate 3-kinase catalytic subunit alpha isoform; assay: Inhibition of PIK3CA-mediated cell signaling in PTEN-deficient human U87MG cells assessed as inhibition of insulin-induced pAkt/PKB phosphorylation at Thr308 treated for 15 mins before insulin challenge measured after 5 mins by immunoblotting; format: cell-based, U-87MG ATCC
cells [5] = conditions: Homo sapiens, HCT-116; remark: listed apart in the source
[6] = target: T3, Phosphatidylinositol 4,5-bisphosphate 3-kinase catalytic subunit delta isoform (Homo sapiens, UniProt O00329); assay: Inhibition of human His-tagged PI3K p110delta after 2 hrs by HTRF assay
T3 sequence (O00329 whole entry): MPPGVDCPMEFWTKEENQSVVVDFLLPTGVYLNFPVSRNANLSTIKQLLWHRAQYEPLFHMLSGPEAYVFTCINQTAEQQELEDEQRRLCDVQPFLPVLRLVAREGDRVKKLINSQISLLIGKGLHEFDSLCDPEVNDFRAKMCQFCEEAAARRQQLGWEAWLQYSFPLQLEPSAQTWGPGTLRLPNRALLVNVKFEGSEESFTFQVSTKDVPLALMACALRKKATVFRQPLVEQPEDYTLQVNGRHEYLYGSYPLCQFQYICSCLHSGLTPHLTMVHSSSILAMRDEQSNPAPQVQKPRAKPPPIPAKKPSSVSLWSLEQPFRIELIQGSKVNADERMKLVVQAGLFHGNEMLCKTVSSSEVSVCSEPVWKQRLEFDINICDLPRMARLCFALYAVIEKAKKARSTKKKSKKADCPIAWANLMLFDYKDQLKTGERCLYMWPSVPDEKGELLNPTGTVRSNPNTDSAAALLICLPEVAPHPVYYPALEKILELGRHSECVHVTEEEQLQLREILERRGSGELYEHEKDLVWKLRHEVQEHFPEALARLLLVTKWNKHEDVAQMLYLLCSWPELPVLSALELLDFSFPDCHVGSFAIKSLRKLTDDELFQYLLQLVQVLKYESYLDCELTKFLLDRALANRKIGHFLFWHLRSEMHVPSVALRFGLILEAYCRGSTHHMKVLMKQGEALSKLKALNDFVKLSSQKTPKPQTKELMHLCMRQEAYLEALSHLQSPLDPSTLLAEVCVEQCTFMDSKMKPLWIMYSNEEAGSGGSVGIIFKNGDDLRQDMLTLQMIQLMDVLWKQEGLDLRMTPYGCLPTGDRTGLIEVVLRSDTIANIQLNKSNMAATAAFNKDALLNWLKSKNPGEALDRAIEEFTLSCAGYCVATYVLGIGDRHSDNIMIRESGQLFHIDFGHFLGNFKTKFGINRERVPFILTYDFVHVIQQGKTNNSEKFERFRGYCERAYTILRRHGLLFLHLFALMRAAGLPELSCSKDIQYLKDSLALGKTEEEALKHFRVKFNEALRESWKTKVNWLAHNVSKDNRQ

[7] = target: Phosphatidylinositol 4,5-bisphosphate 3-kinase catalytic subunit gamma isoform (Homo sapiens, UniProt P48736); assay: Inhibition of human His-tagged PI3K p110gamma after 2 hrs by HTRF assay
[8] = target: T1, Phosphatidylinositol 4,5-bisphosphate 3-kinase catalytic subunit beta isoform; assay: Inhibition of human recombinant PI3K p110beta expressed in Sf21 insect cells using phosphatidylinositol as substrate after 1 hr by phosphoimaging
[9] = target: Phosphatidylinositol 4,5-bisphosphate 3-kinase catalytic subunit alpha isoform (Homo sapiens, UniProt P42336, E545K); assay: Inhibition of human PI3K p110alpha helical domain E545K mutant after 2 hrs by HTRF assay
[10] = target: T2, Phosphatidylinositol 4,5-bisphosphate 3-kinase catalytic subunit alpha isoform; assay: Inhibition of human His-tagged PI3K p110alpha after 2 hrs by HTRF assay
cells [11] = conditions: Homo sapiens, NZB5
cells [12] = conditions: Homo sapiens, NZOV9
[13] = target: Phosphatidylinositol 4,5-bisphosphate 3-kinase catalytic subunit alpha isoform (Homo sapiens, UniProt P42336, H1047R); assay: Inhibition of human His-tagged PI3K p110alpha H1047R mutant after 2 hrs by HTRF assay
[14] = target: Phosphatidylinositol 4,5-bisphosphate 3-kinase catalytic subunit alpha isoform (Mus musculus, UniProt P42337); assay: Inhibition of mouse recombinant PI3K p110alpha expressed in Sf21 insect cells using phosphatidylinositol as substrate after 1 hr by phosphoimaging
[15] = Inhibition of bovine recombinant PI3K p110delta expressed in Sf21 insect cells using phosphatidylinositol as substrate after 1 hr by phosphoimaging; set-up: species or system Bos taurus
Mus musculus [16] = assay: Toxicity in PTEN-deficient human U87MG cells xenografted Rag1-/- mouse assessed as delayed body weight loss at 50 mg/kg, ip qd for 10 days; format: organism-based, U-87MG ATCC; set-up: dose 50 mg/kg, route intraperitoneal; conditions: in vivo, 240 h
[17] = Half life in CD1 mouse at 10 mg/kg, ip administered as single dose by LC-MS/MS analysis; format: ADME, organism-based; set-up: dose 10 mg/kg, route intraperitoneal; conditions: in vivo
[18] = Cmax in CD1 mouse at 10 mg/kg, ip administered as single dose by LC-MS/MS analysis; format: ADME, organism-based; set-up: dose 10 mg/kg, route intraperitoneal; conditions: in vivo
[19] = AUC (infinity) in CD1 mouse at 10 mg/kg, ip administered as single dose by LC-MS/MS analysis; format: ADME, organism-based; set-up: time infinity, dose 10 mg/kg, route intraperitoneal; conditions: plasma
[20] = Tmax in CD1 mouse at 10 mg/kg, ip administered as single dose by LC-MS/MS analysis; format: ADME, organism-based; set-up: dose 10 mg/kg, route intraperitoneal; conditions: in vivo
[21] = Aqueous solubility of the compound in water after 15 mins by HPLC analysis; conditions: aqueous medium
Mus musculus [22] = assay: Toxicity in PTEN-deficient human U87MG cells xenografted Rag1-/- mouse assessed as body weight loss at 15 mg/kg, ip qd for 10 days; format: organism-based, U-87MG ATCC; set-up: dose 15 mg/kg, route intraperitoneal; conditions: in vivo, 240 h
[23] = Antitumor activity in PTEN-deficient human U87MG xenografted in Rag1-/- mouse assessed as inhibition of tumor growth at 15 mg/kg, ip qd for 10 days measured after 10 days (reference value: 18.5 +/- 3.4%); format: functional, U-87MG ATCC; conditions: U-87 MG, 240 h, route intraperitoneal, read-out: GI
Mus musculus [24] = assay: Toxicity in PTEN-deficient human U87MG cells xenografted Rag1-/- mouse assessed as body weight loss at 40 mg/kg, ip qd for 10 days; format: organism-based, U-87MG ATCC; set-up: dose 40 mg/kg, route intraperitoneal; conditions: in vivo, 240 h
[25] = Antitumor activity in PTEN-deficient human U87MG xenografted in Rag1-/- mouse assessed as inhibition of tumor growth at 40 mg/kg, ip qd for 10 days measured after 10 days (reference value: 18.5 +/- 3.4%); format: functional, U-87MG ATCC; conditions: U-87 MG, 240 h, read-out: GI, route intraperitoneal

Chain of Phosphatidylinositol 4,5-bisphosphate 3-kinase catalytic subunit alpha isoform (Homo sapiens, UniProt P42336, E545K) (P42336 whole entry E545K, the tested form may be a part, canonical isoform): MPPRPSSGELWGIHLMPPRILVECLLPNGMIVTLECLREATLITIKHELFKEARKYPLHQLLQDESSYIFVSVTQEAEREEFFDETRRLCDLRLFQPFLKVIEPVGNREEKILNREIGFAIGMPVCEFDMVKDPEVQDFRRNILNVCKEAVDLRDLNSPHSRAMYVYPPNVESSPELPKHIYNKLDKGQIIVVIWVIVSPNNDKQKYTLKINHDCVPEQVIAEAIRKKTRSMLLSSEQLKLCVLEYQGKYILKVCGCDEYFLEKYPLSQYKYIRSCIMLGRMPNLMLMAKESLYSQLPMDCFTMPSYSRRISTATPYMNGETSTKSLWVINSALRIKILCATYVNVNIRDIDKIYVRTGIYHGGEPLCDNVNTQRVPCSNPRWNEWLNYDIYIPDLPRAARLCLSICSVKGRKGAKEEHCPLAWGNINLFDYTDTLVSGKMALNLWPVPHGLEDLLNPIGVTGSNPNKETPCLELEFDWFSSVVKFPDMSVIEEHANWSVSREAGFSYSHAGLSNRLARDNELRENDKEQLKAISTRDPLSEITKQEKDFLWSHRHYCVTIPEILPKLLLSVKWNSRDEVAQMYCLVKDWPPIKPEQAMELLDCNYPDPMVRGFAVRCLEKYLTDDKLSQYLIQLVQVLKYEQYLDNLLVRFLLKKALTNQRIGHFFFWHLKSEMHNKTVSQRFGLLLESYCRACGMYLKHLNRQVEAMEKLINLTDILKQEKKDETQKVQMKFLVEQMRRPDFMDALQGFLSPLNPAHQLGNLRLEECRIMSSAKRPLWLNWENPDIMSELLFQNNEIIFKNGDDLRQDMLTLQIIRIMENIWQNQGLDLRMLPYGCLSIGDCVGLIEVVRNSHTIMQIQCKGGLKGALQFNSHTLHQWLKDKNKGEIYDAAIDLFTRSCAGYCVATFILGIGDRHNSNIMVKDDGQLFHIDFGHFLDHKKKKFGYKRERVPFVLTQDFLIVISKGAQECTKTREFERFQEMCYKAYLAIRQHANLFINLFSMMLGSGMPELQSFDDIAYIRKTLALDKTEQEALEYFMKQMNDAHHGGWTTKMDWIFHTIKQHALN
Chain of Phosphatidylinositol 4,5-bisphosphate 3-kinase catalytic subunit alpha isoform (Mus musculus, UniProt P42337) (P42337 whole entry, canonical isoform): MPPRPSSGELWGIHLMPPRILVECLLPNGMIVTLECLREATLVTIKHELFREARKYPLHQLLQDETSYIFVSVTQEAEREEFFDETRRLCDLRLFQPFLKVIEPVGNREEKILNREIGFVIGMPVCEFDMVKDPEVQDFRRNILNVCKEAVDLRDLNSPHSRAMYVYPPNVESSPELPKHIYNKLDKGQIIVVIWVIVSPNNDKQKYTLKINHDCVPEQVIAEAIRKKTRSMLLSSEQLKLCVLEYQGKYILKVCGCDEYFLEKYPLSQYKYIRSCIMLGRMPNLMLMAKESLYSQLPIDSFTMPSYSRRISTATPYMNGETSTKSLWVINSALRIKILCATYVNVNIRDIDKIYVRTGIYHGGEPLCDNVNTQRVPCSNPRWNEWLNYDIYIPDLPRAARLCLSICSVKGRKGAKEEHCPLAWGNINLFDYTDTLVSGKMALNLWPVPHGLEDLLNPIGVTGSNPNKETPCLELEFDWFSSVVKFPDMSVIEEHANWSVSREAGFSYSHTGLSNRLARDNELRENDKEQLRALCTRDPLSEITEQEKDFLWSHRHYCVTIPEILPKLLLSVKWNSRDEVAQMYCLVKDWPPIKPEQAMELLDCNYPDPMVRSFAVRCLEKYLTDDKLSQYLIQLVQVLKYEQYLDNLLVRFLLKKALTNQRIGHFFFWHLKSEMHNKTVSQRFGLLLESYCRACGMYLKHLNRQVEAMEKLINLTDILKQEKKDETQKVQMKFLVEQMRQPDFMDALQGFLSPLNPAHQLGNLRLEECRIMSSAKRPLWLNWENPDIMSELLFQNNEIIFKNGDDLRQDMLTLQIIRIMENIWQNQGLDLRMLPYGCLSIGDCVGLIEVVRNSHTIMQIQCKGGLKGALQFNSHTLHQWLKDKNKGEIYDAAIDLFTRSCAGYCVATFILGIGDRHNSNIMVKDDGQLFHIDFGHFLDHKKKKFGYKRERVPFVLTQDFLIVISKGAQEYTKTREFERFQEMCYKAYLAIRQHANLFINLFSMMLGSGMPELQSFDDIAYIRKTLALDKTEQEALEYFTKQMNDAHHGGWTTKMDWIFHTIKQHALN
T1 sequence (P42338 whole entry, canonical isoform): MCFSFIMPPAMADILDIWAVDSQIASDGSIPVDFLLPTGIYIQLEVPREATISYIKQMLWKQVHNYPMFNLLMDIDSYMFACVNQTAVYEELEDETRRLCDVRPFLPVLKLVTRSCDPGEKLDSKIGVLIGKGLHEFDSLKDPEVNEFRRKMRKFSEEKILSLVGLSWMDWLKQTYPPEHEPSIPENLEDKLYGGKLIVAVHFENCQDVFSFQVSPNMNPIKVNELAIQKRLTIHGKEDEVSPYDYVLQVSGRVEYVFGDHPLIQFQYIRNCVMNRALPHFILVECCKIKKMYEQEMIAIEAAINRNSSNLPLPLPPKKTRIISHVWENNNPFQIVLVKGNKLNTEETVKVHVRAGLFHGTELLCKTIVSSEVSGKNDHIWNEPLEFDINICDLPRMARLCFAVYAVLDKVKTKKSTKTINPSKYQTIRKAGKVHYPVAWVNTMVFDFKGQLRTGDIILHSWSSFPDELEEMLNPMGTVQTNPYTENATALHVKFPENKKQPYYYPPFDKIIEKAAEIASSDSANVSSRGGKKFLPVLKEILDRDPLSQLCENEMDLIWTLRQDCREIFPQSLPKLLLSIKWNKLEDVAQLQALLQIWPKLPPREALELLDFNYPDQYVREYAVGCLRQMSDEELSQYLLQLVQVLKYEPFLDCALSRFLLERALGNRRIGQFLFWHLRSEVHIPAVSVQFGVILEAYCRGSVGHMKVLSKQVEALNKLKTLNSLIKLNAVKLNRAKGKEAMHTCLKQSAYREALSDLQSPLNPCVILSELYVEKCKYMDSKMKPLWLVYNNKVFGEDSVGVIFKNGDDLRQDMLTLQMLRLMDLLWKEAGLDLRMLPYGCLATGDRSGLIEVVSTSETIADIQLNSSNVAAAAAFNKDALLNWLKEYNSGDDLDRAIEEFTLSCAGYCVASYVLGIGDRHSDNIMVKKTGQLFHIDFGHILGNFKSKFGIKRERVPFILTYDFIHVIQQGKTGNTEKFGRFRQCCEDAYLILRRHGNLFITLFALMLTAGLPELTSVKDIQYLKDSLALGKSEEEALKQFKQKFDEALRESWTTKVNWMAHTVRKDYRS
Chain of Phosphatidylinositol 4,5-bisphosphate 3-kinase catalytic subunit alpha isoform (Homo sapiens, UniProt P42336, H1047R) (P42336 whole entry H1047R, canonical isoform): as the sequence (P42336 whole entry E545K, the tested form may be a part, canonical isoform) above, with K545E, H1047R counted along it
T2 sequence (P42336 whole entry, canonical isoform): as the sequence (P42336 whole entry E545K, the tested form may be a part, canonical isoform) above, with K545E counted along it
Chain of Phosphatidylinositol 4,5-bisphosphate 3-kinase catalytic subunit gamma isoform (P48736 whole entry, canonical isoform): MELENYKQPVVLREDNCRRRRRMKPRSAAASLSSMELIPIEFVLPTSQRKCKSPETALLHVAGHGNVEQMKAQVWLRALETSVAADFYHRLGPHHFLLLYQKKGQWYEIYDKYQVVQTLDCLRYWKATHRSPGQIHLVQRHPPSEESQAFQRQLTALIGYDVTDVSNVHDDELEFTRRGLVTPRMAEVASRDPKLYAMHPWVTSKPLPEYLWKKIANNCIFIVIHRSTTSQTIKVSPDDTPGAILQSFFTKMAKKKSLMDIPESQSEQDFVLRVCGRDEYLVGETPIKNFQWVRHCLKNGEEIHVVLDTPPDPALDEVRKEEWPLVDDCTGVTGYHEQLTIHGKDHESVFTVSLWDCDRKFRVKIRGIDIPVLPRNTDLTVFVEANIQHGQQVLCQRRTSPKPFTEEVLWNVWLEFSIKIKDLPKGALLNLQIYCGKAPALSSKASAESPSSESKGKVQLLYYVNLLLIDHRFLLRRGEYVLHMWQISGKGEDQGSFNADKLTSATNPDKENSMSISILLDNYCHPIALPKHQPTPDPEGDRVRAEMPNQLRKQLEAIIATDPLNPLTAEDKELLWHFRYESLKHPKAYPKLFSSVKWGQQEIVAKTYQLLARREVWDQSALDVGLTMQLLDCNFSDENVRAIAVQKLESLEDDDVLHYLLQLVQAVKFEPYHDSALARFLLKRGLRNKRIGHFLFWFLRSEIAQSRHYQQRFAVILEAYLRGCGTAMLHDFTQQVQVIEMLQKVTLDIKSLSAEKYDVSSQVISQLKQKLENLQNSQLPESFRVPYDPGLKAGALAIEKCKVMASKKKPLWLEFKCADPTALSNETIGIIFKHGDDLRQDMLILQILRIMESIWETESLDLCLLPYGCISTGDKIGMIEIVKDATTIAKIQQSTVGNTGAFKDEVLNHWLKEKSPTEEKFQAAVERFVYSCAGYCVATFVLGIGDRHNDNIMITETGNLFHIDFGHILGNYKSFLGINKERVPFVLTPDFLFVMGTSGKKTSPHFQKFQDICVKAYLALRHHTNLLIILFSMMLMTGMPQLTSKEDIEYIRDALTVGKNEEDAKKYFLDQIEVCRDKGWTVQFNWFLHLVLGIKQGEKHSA

Structure (SMILES)	IC50 (cells [1]) [nM]	IC50 [2] [nM]	IC50 [3] [nM]	IC50 [4] [nM]	IC50 (cells [5]) [nM]	IC50 [6] [nM]	IC50 [7] [nM]	IC50 [8] [nM]	IC50 [9] [nM]	IC50 [10] [nM]	IC50 (cells [11]) [nM]	IC50 (cells [12]) [nM]	IC50 [13] [nM]	IC50 [14] [nM]	IC50 [15] [nM]	half-life [17] [h]	Cmax [18] [nM]	AUC(0-inf) [19] [µM·h]	Tmax [20] [h]	solubility at […] [21] [µg/mL]	further results
FC(F)Oc1cccc2c1nc(C(F)F)n2-c1nc(N2CCOCC2)nc(N2CCOCC2)n1	381	> 2500	427	418	415	34	56	56	3	4.7	47	28	8.5	26	7.4						
COc1cc(N)cc2c1nc(C(F)F)n2-c1nc(N2CCOCC2)nc(N2CCOCC2)n1					12											1.48	3450	5.22	0.083		Activity (Mus musculus [16]): Toxic
Oc1cccc2c1nc(C(F)F)n2-c1nc(N2CCOCC2)nc(N2CCOCC2)n1	0.18	3.5	1.3	2.9	8.3	0.65	6	0.68	0.12	0.53	30	10	0.83	0.9	0.27	1.55	628	1.03	0.25	0.32 (≈ 0.738 µM)	
Cn1c(=O)n(-c2ccc(C(C)(C)C#N)cc2)c2c3cc(-c4cnc5ccccc5c4)ccc3ncc21 [DACTOLISIB]																					Activity (Mus musculus [22]): Non-toxic; inhibition in vivo at 15 mg/kg [23]: 31.5%
FC(F)c1nc2ccccc2n1-c1nc(N2CCOCC2)nc(N2CCOCC2)n1 [ZSTK-474]	78				97											1.52	2360	9.66	2	0.61 (≈ 1.46 µM)	Activity (Mus musculus [24]): Non-toxic; inhibition in vivo at 40 mg/kg [25]: 65.3%
COc1ccc2c(nc(C(F)F)n2-c2nc(N3CCOCC3)nc(N3CCOCC3)n2)c1O	515	44	583	378	507	2	52	6.7	49	70	334	130	158	37	0.3						
